What was measured:
ESAT-6 = conditions: in vivo
blood cells = assay type: in vivo, C57BL/6 mice; conditions: 10 μg ESAT-6/dose, three times

SMILES: CCCCCCCCCCCCCCCCCC[N+](C)(C)CCCCCCCCCCCCCCCCCC.[Br-] [DDA]
- ESAT-6 specific IgG (end-point titer), Expt. I (ESAT-6): <3
- ESAT-6 specific IgG (end-point titer), Expt. II (ESAT-6): <3
- ESAT-6 specific recall response, IFN-γ, Expt. I (blood cells): <50 pg/mL

Reference: patent US20050191308A1 (priority 1999, published 2005)
